According to patent publication US7030150B2, “Benzimidazole compounds and antiviral uses thereof” (Trimeris, Inc., priority 2001, dated 2006):

Tested on: uninfected Hep2 cells
Details: not given

Point of comparison: `OCC1CCCN(Cc2nc3ccccc3n2Cc2nc3ccccc3[nH]2)C1` (centres unmarked) [compound 211], CC50 32 µM. Against it:
- Fc1cccc(F)c1CNCc1nc2ccccc2n1Cc1nc2ccccc2[nH]1 [compound 161] — higher, ≥ 100 µM
- CCN(CC)CCNCc1nc2ccccc2n1Cc1nc2ccccc2[nH]1 [compound 162] — higher, ≥ 100 µM
- Clc1ccc(CCNCc2nc3ccccc3n2Cc2nc3ccccc3[nH]2)cc1 [compound 163] — 2-fold lower, 16 µM
- CNCc1nc2ccccc2n1Cc1nc2ccccc2[nH]1 [compound 164] — higher, ≥ 100 µM
- c1ccc2[nH]c(Cn3c(CNC4CCCCC4)nc4ccccc43)nc2c1 [compound 165] — higher, ≥ 100 µM
- O=c1[nH]ccn1CCNCc1nc2ccccc2n1Cc1nc2ccccc2[nH]1 [compound 166] — higher, ≥ 100 µM
- Fc1ccc(CCNCc2nc3ccccc3n2Cc2nc3ccccc3[nH]2)cc1 [compound 167] — higher, ≥ 100 µM
- c1ccc(CC(NCc2nc3ccccc3n2Cc2nc3ccccc3[nH]2)c2ccccc2)cc1 (centres unmarked) [compound 168] — higher, ≥ 100 µM
- c1ccc2[nH]c(Cn3c(CNCc4ccc5c(c4)OCO5)nc4ccccc43)nc2c1 [compound 169] — higher, ≥ 100 µM
- c1ccc2[nH]c(Cn3c(CNCC4CCCO4)nc4ccccc43)nc2c1 (centres unmarked) [compound 170] — higher, ≥ 100 µM
- Clc1ccc(CNCc2nc3ccccc3n2Cc2nc3ccccc3[nH]2)cc1Cl [compound 171] — 1.8-fold higher, 58 µM
- CN1CCCC1CCNCc1nc2ccccc2n1Cc1nc2ccccc2[nH]1 (centres unmarked) [compound 172] — 3-fold higher, 95 µM
- Fc1cc(F)cc(CNCc2nc3ccccc3n2Cc2nc3ccccc3[nH]2)c1 [compound 173] — 5-fold lower, 6.4 µM
- CN(C)CCCNCc1nc2ccccc2n1Cc1nc2ccccc2[nH]1 [compound 174] — higher, ≥ 100 µM
- COc1ccccc1CCNCc1nc2ccccc2n1Cc1nc2ccccc2[nH]1 [compound 175] — higher, ≥ 100 µM
- CCCCC(CO)NCc1nc2ccccc2n1Cc1nc2ccccc2[nH]1 (centres unmarked) [compound 176] — higher, ≥ 100 µM
- c1ccc2[nH]c(Cn3c(CNC4CCCC4)nc4ccccc43)nc2c1 [compound 177] — higher, ≥ 100 µM
- c1ccc2c(NCc3nc4ccccc4n3Cc3nc4ccccc4[nH]3)cccc2c1 [compound 180] — 2.3-fold lower, 14 µM
- COc1cccc(CNCc2nc3ccccc3n2Cc2nc3ccccc3[nH]2)c1OC [compound 181] — higher, ≥ 100 µM
- CCOCCCNCc1nc2ccccc2n1Cc1nc2ccccc2[nH]1 [compound 182] — higher, ≥ 100 µM
- FC(F)(F)c1ccc(N2CCN(Cc3nc4ccccc4n3Cc3nc4ccccc4[nH]3)CC2)nc1 [compound 196] — 2.4-fold higher, 78 µM
- COc1ccc(N2CCN(Cc3nc4ccccc4n3Cc3nc4ccccc4[nH]3)CC2)cc1 [compound 197] — higher, ≥ 100 µM
- O=C(c1ccco1)N1CCN(Cc2nc3ccccc3n2Cc2nc3ccccc3[nH]2)CC1 [compound 198] — higher, ≥ 100 µM
- c1ccc2[nH]c(Cn3c(CN4CCCC4)nc4ccccc43)nc2c1 [compound 199] — higher, ≥ 100 µM
- c1ccc2[nH]c(Cn3c(CN4CCC4)nc4ccccc43)nc2c1 [compound 200] — 4.2-fold lower, 7.6 µM
- C1=CCN(Cc2nc3ccccc3n2Cc2nc3ccccc3[nH]2)C1 [compound 201] — 1.7-fold lower, 19 µM
- C1=CCN(Cc2nc3ccccc3n2Cc2nc3ccccc3[nH]2)CC1 [compound 202] — higher, ≥ 100 µM
- CCOC(=O)C1CCN(Cc2nc3ccccc3n2Cc2nc3ccccc3[nH]2)CC1 [compound 203] — higher, ≥ 100 µM
- c1ccc(CC2=NCCN2Cc2nc3ccccc3n2Cc2nc3ccccc3[nH]2)cc1 [compound 204] — higher, ≥ 100 µM
- CC1CC(C)CN(Cc2nc3ccccc3n2Cc2nc3ccccc3[nH]2)C1 (centres unmarked) [compound 205] — higher, ≥ 100 µM
- CC1C=CC(C)N1Cc1nc2ccccc2n1Cc1nc2ccccc2[nH]1 (centres unmarked) [compound 207] — higher, ≥ 100 µM
- OCC1CCCN1Cc1nc2ccccc2n1Cc1nc2ccccc2[nH]1 (centres unmarked) [compound 209] — higher, ≥ 100 µM
- OCC1CCCCN1Cc1nc2ccccc2n1Cc1nc2ccccc2[nH]1 (centres unmarked) [compound 210] — 4-fold lower, 8 µM
- OCCC1CCCCN1Cc1nc2ccccc2n1Cc1nc2ccccc2[nH]1 (centres unmarked) [compound 213] — higher, ≥ 100 µM
- c1ccc2[nH]c(Cn3c(CN4CCC5CCCCC5C4)nc4ccccc43)nc2c1 (centres unmarked) [compound 214] — higher, ≥ 100 µM
- FC(F)(F)c1cnc(N2CCCN(Cc3nc4ccccc4n3Cc3nc4ccccc4[nH]3)CC2)c(Cl)c1 [compound 215] — higher, ≥ 100 µM
- OCCOCCN1CCN(Cc2nc3ccccc3n2Cc2nc3ccccc3[nH]2)CC1 [compound 216] — 3.6-fold lower, 9 µM
- c1ccc2[nH]c(Cn3c(CN4CCC(C5CCNCC5)CC4)nc4ccccc43)nc2c1 [compound 217] — higher, ≥ 100 µM
- FC(F)(F)c1cccc(N2CCN(Cc3nc4ccccc4n3Cc3nc4ccccc4[nH]3)CC2)c1 [compound 219] — higher, ≥ 100 µM
- Oc1ccc(N2CCN(Cc3nc4ccccc4n3Cc3nc4ccccc4[nH]3)CC2)cc1 [compound 220] — higher, ≥ 100 µM
- c1ccc2[nH]c(Cn3c(CN4CCSC4)nc4ccccc43)nc2c1 [compound 222] — higher, ≥ 100 µM
- COc1cc2c(cc1OC)C(CC#N)N(Cc1nc3ccccc3n1Cc1nc3ccccc3[nH]1)CC2 (centres unmarked) [compound 223] — higher, ≥ 100 µM
- O=C1c2ccccc2C(=O)N1Cc1nc2ccccc2n1Cc1nc2ccccc2[nH]1 [compound 226] — 1.6-fold higher, 50 µM
- Cc1ccc(N2CCN(Cc3nc4ccccc4n3Cc3nc4ccccc4[nH]3)CC2)c(C)c1 [compound 227] — higher, ≥ 100 µM
- c1ccc2[nH]c(Cn3c(CN4CCC(N5CCCC5)CC4)nc4ccccc43)nc2c1 [compound 228] — 1.9-fold higher, 60 µM
- CCN1CCN(Cc2nc3ccccc3n2Cc2nc3ccccc3[nH]2)CC1 [compound 230] — higher, ≥ 100 µM
- c1ccc(CN2CCN(Cc3nc4ccccc4n3Cc3nc4ccccc4[nH]3)CC2)cc1 [compound 231] — 2.1-fold lower, 15 µM
- O=C(OCc1ccccc1)N1CCCCN(Cc2nc3ccccc3n2Cc2nc3ccccc3[nH]2)CC1 [compound 232] — higher, ≥ 100 µM
- c1ccc2[nH]c(Cn3c(CN4CCCCCCC4)nc4ccccc43)nc2c1 [compound 233] — higher, ≥ 100 µM
- c1ccc2[nH]c(Cn3c(CN4CCC5CCCCC5C4)nc4ccccc43)nc2c1 (centres unmarked) [compound 234] — within 1.5-fold, 24 µM
- O=C1C(=O)N(Cc2nc3ccccc3n2Cc2nc3ccccc3[nH]2)c2ccc(Br)cc21 [compound 235] — higher, ≥ 100 µM
- O=C1C(=O)N(Cc2nc3ccccc3n2Cc2nc3ccccc3[nH]2)c2ccc([N+](=O)[O-])cc21 [compound 236] — higher, ≥ 100 µM
- O=C1C(=O)N(Cc2nc3ccccc3n2Cc2nc3ccccc3[nH]2)c2ccc(F)cc21 [compound 237] — 2-fold higher, 65 µM

Tested on: rhinoviruses
Details: cited from earlier work

For `COc1ccc2[nH]c(C(O)C(O)c3nc4cc(OC)ccc4[nH]3)nc2c1` (centres unmarked) [1,2-(5-methoxy-2-benzimidazole)-1,2-ethanediol], the “inhibition of the cytopathic effect” value is listed as 100%.

Tested on: picornaviruses
Details: cited from earlier work

In the case of `OC(c1nc2ccccc2[nH]1)C(O)c1nc2ccccc2[nH]1` (centres unmarked) [1,2-bis(2-benzimidazole)-1,2-ethanediol], the “antiviral activity against an assortment of picornaviruses” value (“antiviral activity against an assortment” for short) is given as “active”.
In the case of `OC(c1ccccc1)c1nc2ccccc2[nH]1` (stereo not drawn) [2-(α-hydroxybenzyl)benzimidazole], the “antiviral activity against an assortment” value is listed as “active”.
In the case of `c1ccc2[nH]cnc2c1` [benzimidazole], the “antiviral activity against an assortment” value is given as “active”.

Tested on: poliovirus type 1
Details: monkey kidney and HeLa cell cultures; cited from earlier work

In the case of `OC(c1ccccc1)c1nc2ccccc2[nH]1` (stereo not drawn) [2-(α-hydroxybenzyl)benzimidazole], the “inhibition of poliovirus type 1” value is given as “inhibits”.
